# Source: US20250099400A1, “TERPENES FOR USE IN MODULATION OF A PHY[…]” (BUZZELET DEVELOPMENT AND TECHNOLOGIES LTD., priority 2022, published 2025)
# Test system: not listed separately
# Assay: Solubility in the test solutions
# Conditions: 24 mM K+ solution, saline or isotonic, kinetic from dmso stock
row,SMILES,solubility [µM]
1,"CCCCCc1cc(O)c2c(c1)OC(C)(C)[C@@H]1CCC(C)=C[C@@H]21 [THC, tetrahydrocannabinol, reference compound]",10

# Same assay, conditions: CB1 dose-response experiment; excluded from analysis
row,SMILES,solubility relative to the tested concentration range
1,CC(C)=CCC[C@](C)(O)C1CC=C(C)CC1 (stereo partly drawn) [bisabolol],below the tested concentration range
2,C/C1=C\CC/C(C)=C/CC(C)(C)/C=C/C1 [humulene],below the tested concentration range
3,C=CC(C)(O)CCC=C(C)CCC=C(C)C (stereo not drawn) [nerolidol],below the tested concentration range
4,C=C1CC/C=C(\C)CC[C@@H]2[C@@H]1CC2(C)C [β-caryophyllene],below the tested concentration range

# Target: T1, CB1 receptor (Homo sapiens, UniProt P21554)
# T1 construct: expressed in transfected cells; host or cells: Xenopus laevis oocytes injected with in vitro transcribed cRNA
# Assay: CB1 receptor-activated GIRK currents in Xenopus oocytes (two-electrode voltage clamp)
# Assay type: cell-based
# Conditions: THC concentrations each supplemented with terpene at a weight/weight ratio of 1/10, compared with THC alone
# Method: cDNA plasmids of the two subunits of the G protein-activated inwardly rectifying K^+ channel (GIRK) (GIRK1 and GIRK2), the CB1 receptor, the CB2 receptor, and the α subunit of the G-protein (Gαi3) were linearized with the appropriate restriction enzymes. The linearized plasmids were transcribed in vitro using a standard procedure.
# Oocytes were isolated from female adult X. laevis anesthetized (with 1 g/L MS-222) and incubated in NDE96 solution composed of ND96 (in mM: 96 NaCl, 2 KCl, 1 CaCl2, 1 MgCl2, 5 Hepes, with pH adjusted to 7.5 with NaOH) with the addition of 2.5 mM Na^+ pyruvate, 100 units/ml penicillin, and 100 μg/ml streptomycin (16). The isolated oocytes were injected with the relevant cRNAs: cRNAs of CB1 receptor and CB2 receptor (2 ng) and GIRK1 and GIRK2 (200 pg each) were injected. In addition, cRNA of Gαi3 (1000 pg) was injected to decrease the basal GIRK current (IK) and to improve the relative activation by the agonist.
# Currents were measured 3-5 days after cRNA injection and were recorded using the standard two-electrode voltage clamp technique (Axoclamp 2B amplifier, Axon Instruments, Foster City, CA).
# Each oocyte was placed in a recording bath containing ND96 solution and was impaled with two electrodes pulled from 1.5-mm Clark capillaries (Warner instruments, Hamden, CT). Both electrodes were filled with a 3M KCI solution and the electrode resistance was between 1 and 5 MΩ. The CB1 receptor-mediated GIRK and the CB2 receptor-mediated GIRK currents were measured in 24 mM K^+ solution (in mM: 72 NaCl, 24 KCl, 1 CaCl2, 1 MgCl2, 5 Hepes, with pH adjusted to 7.5 with KOH). Ba^+2 (1 mM) was used to block the currents in order to verify that the measured currents were indeed mediated by GIRK channels.
# The dose response curves were fitted by equation 1:
# Y=Bottom+X*(Top-Bottom)/(EC50+X), (1)
# The responses evoked in the same oocyte by either THC and\or terpenes measurements, were normalized to this reference value.
# The Xenopus oocytes functional expression system was used to test the possibility that the presence of various terpenes affects the activation of the CB1 receptor, as depicted schematically in FIG. 1A. To this end, Xenopus oocytes were injected with cRNAs of proteins involved in the pathway leading to activation of K^+ currents by CB1 receptor via βγ subunits of the G-proteins: The CB1 receptor, the two subunits of the GIRK channel (GIRK1 and GIRK2), and the Gαi3 subunit.
# First, the dependence of THC-induced K^+ current (ITHC) on THC concentration (dose-response, DR) was measured. The oocyte was voltage-clamped to −80 mV in a low K^+ (2 mM K^+) solution, ND96. Basal GIRK current (IK) was developed upon replacement of the ND96 by the 24 mM K^+solution. This current represents the basal activation of GIRK channel by endogenous By subunits present in the oocytes. Then, five different concentrations of THC were applied sequentially in ascending order giving rise to ITHC. This current was terminated upon washout of THC. Employing this basic experimental protocol, a full DR curve was constructed.
# In order to compare between oocytes, ITHC at any particular THC concentration was normalized to ITHC obtained at a 10 μM THC, defined as the reference response, at this same oocyte.
# T1 sequence (P21554 whole entry): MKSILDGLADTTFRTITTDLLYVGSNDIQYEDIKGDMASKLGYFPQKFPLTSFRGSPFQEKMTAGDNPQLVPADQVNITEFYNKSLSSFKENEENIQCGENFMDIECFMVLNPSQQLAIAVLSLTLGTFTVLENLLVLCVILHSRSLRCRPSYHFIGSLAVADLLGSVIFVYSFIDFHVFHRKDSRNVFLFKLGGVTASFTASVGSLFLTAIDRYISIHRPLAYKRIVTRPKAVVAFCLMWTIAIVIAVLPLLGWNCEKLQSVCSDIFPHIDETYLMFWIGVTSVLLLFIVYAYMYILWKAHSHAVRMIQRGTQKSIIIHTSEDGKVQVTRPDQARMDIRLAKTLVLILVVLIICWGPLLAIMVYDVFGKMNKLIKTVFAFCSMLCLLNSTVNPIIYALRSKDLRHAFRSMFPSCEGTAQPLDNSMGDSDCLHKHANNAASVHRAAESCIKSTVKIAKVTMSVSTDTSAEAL
row,SMILES,effect of terpene addition on the potency of THC in CB1 receptor activation
1,C=CC(C)(O)CCC=C(C)C (racemic) [linalool],significantly enhances the potency of THC
2,"C=C1CCC2CC1C2(C)C (stereo not drawn) [beta pinene, β-pinene]",significantly enhances the potency of THC
3,CC1(C)C2CCC1(C)C(O)C2 (stereo not drawn) [borneol],significantly enhances the potency of THC
4,CC(C)=CCC/C(C)=C/CO [geraniol],significantly enhances the potency of THC
5,"C=C(C)[C@H]1CC=C(C)CC1 [limonene, limonene-D]",significantly enhances the potency of THC
6,C=CC(C)=CCC=C(C)C [ocimene],significantly enhances the potency of THC
7,C=C1CCC2(C(C)C)CC12 (stereo not drawn) [sabinene],significantly enhances the potency of THC
